Reference: patent publication US20090214500A1, “PREVENTION AND TREATMENT OF OSTEOCHONDROSIS IN ANIMALS AND HUMANS” (U.S. Borax Inc., priority 2005, published 2009)
“Also recorded” adds a separate entry of the source.

Experiments:
sows [1] = format: in vivo
Experimental: (§1) Boron was added to the diet of sows at 1 mg/kg body weight as boric acid. […] Among a group of 95 piglets the birth to weaning mortality was 2 piglets. The usual mortality for this farm was about 5 to 7%. These piglets remained on boron 50 ppm plus ascorbate 125 ppm. One pig was euthanized and examined at a weight of about 85 pounds. […] All bones of the appendicular skeleton were sectioned on the band saw.

pigs [2] = conditions: 50 ppm boron as boric acid
Source text: An Iowa farm treated a group of about 100 pigs with 50 ppm boron as boric acid.

[3] = format: in vivo; conditions: one pig of about 85 pounds kept on boron 50 ppm plus ascorbate 125 ppm
Experimental: as §1

pigs [4] = assay: 3-NPB with or without supplemental boron in pigs, lameness and joint lesions; conditions: for Clinical Lameness Score Normal, count of pigs / Clinical Lameness Score Visible Lameness, count of pigs: 5 pigs
Experimental: The pigs were evaluated for lameness daily and euthanized on day 13 and the joints and other organs were examined.

Duroc and Yorkshire pigs = assay: Boron supplementation and OC-associated lameness in swine (Example 1); format: in vivo, pig
Experimental: The basal diet consisted of commercial corn-soy diet containing 10 ppm boron.
Test diet group B was fed a basal diet plus 25 mg/kg boron as sodium borate decahydrate (borax). Test diet group A was fed a basal diet plus 25 mg/kg boron as sodium borate decahydrate (borax) and 250 mg/kg ascorbic acid.
Pigs were weighed at the beginning of the study, 4 weeks later and every 3 weeks until the end of the study. Animals were scored for soundness on a 5-point scale at each weighing. (Five-point scale: 1=no soundness defects; 2=minor soundness issues but still sound enough for retention as breeding animal; 3=not sound enough for retention for breeding but still marketable; 4=unsound, likely to be rejected at slaughter; 5=severely lame, requiring euthanasia for humane reasons.) Grading was done by the caretaker and the investigator at all weighing times. An experienced independent treatment-blind rater also evaluated the soundness of each animal and the ratings he provided were compared with the ratings of the caretaker and investigator by use of Cohen's Kappa test.
The animals were housed in a modern curtain sided barn with deep straw bedding, with ad libitum access to feed and water. Waterers and feeders were on a concrete pad but the remainder of the flooring was deep straw over a ground limestone and sand base. Floor space allowances exceeded the recommendations of the Guide for the Care and Use of Agricultural Animals in Agricultural Research and Teaching, First Revised Edition, 1999. Federation of Animal Science Societies. Savoy, Ill.
The basal diet (no boron supplemented) was analysed and found to contain boron at the rate of 10 ppm which is typical for a corn-soybean meal based diet.
At the end of the study the pigs were transported to a laboratory where they were euthanized and necropsied. […]
At necropsy, samples of liver, heart, kidney, fat, skeletal muscle, proximal tibia, blood, and the rostral snout were retained and frozen at −40° C. prior to chemical analysis. All joints of the axial skeleton were evaluated for the presence of gross lesions of osteochondrosis and graded on a 5 point scale. […]
Mean joint lesion scores, growth rate and soundness scores by treatment and by factors boron and ascorbate were compared using an analysis of variance and t-test as appropriate. Soundness scores were dichotomised into binary categorical variables for lameness (soundness score>2) and for absence of defects (soundness<2), and the binary variables analysed by chi-square and logistic regression.
Tissue specimens stained with H&E were examined microscopically for the presence of lesions of osteochondrosis. […] Each tissue section was scored by a treatment-blind board-certified pathologist.

sows [5] = assay: Observation in sows fed 50 ppm supplemental boron in late gestation and early lactation; conditions: sow diets with 50 ppm supplemental boron
Experimental: (§2) Sows were fed a standard corn-soy diet. Half of the sows received an oral administration of a boron supplement to provide 1 mg boron per kg body weight.

sows [6] = assay: Preliminary pilot study, oral boron supplement to gestating and lactating sows; conditions: sows given oral 1 mg boron per kg body weight; first 600 pigs, preliminary analysis
Experimental: as §2

sows [7] = assay: Sow and litter trial in a commercial swine operation during a PRRSV outbreak; format: in vivo, pig; conditions: sows given oral 1 mg boron per pound BW per day
Experimental: To test the effect of boron on sows and their litters, a trial was established in a large commercial swine operation during an outbreak of porcine viral reproductive and respiratory disease (PRRSV). Boron was administered orally to a group of 51 sows individually housed in crates at the rate of 1 mg boron per pound BW per day beginning 1 week prior to farrowing and continuing until the piglets were weaned at 14 days of age. […] Boron treatment was supplied as a single daily dosing and was discontinued at weaning. All sows were fed a standard commercial sow diet.

[8] = boron supplementation 50 ppm together with 3-NPB 1 gram daily × 10 days
[9] = boron supplementation 50 ppm, 3-NPB none
[10] = 50 ppm added B in diet, 28 days, 12 pens
[11] = supplemental boron 50 mg/kg vs 0, p<0.05

Question: What does the source list for OB(O)O [boric acid]?
Answer: birth to weaning mortality (sows [1]; pig, in vivo): 2 piglets; outcome of three noticeably and seriously lame sows (sows [1]; sows, boron 1 mg/kg body weight as boric acid in diet): became perfectly sound; growth rate (pigs [2]): excellent growth rate; lameness/unsoundness rate in the test group (pigs [2]; estimated previous rate about 25 to 30%): zero; pigs developing signs of lameness or unsoundness (pigs [2]; about 100 pigs): None

Question: With [B] [Boron] as the molecule, how does the “bone mineralization at necropsy” value [3] read?
Answer: Its value is “excellent mineralization”.

Question: What about the “joint abnormalities at necropsy” value [3] of the same molecule?
Answer: The value was “No abnormalities were observed in any of the joints”.

Question: And the “Clinical Lameness Score Normal, count of pigs” value (pigs [4]; [8])?
Answer: The value was 4.

Question: And the “Clinical Lameness Score Visible Lameness, count of pigs” value (pigs [4]; [8])?
Answer: Its value is 1.

Question: What about the “Clinical Lameness Score Normal, count of pigs” value (pigs [4]; [9]) of the same molecule?
Answer: The value was 5.

Question: And the “Clinical Lameness Score Visible Lameness, count of pigs” value (pigs [4]; [9])?
Answer: The value was 0.

Question: And the “effect of supplemental boron in preventing the lameness induced by 3-NPB” value (pigs [4]; chi-square analysis)?
Answer: Its value is “significant effect; also recorded: could be prevented”.

Question: What about the “pigs that developed lameness” value (pigs [4]; supplemental boron 50 ppm when 3-NPB was provided) of the same molecule?
Answer: The value was “one in 5”.

Question: What about the “prevalence and severity of osteochondrosis lesions in shoulder, stifle, hock and elbow joints” value (pigs [4]; supplemental boron, no 3-NPB) of the same molecule?
Answer: Its value is “lowest prevalence of lesions and the lowest severity”.

Question: And the “joint health compared with basal diet with no supplemental boron (FIG. 1)” value (Duroc and Yorkshire pigs; basal diet plus 25 mg/kg boron as sodium borate decahydrate (borax), with or without 250 mg/kg ascorbic acid)?
Answer: The value was “healthier joints”.

Question: And the “incidence of osteochondrosis-associated lameness” value (Duroc and Yorkshire pigs; growing swine, 25 mg/kg boron as borax in feed)?
Answer: Its value is “effective in reduction of the incidence of osteochondrosis-associated lameness”.

Question: What about the “occurrence of osteochondrosis (OC)” value (Duroc and Yorkshire pigs; pigs, supplemental boron 25 ppm to 50 ppm in feed, FIGS. 1, 3 and 4) of the same molecule?
Answer: Its value is “reduction in the occurrence of osteochondrosis; also recorded: significant reduction in the occurrence of OC”.

Question: What about the “soundness scores / lameness associated with early rapid growth (FIG. 3)” value (Duroc and Yorkshire pigs; rapidly growing swine, 25 mg/kg boron as borax in feed, 25 mg/kg) of the same molecule?
Answer: Its value is “useful in cartilage protection and prevention of lameness; also recorded: reduction of soundness scores associated with early growth”.

Question: And the “Average daily gain (grams per day)” value (crossbred pigs; [10])?
Answer: Its value is 549 grams per day.

Question: What about the “Avg. daily feed intake” value (crossbred pigs; [10]) of the same molecule?
Answer: The value was 1270.

Question: And the “Feed Conversion Ratio (feed/gain)” value (crossbred pigs; [10])?
Answer: Its value is 2.32 feed/gain.

Question: And the “reduction of phosphorus excretion per unit of production” value (crossbred pigs; boron added to the diet, compared with no added boron)?
Answer: The value was 15%.

Question: What about the “effect on average daily gain” value (crossbred pigs; [11]) of the same molecule?
Answer: The value was “increased”.

Question: What about the “effect on fecal phosphorus excretion per unit of growth” value (crossbred pigs; [11]) of the same molecule?
Answer: Its value is “reduced”.

Question: And the “effect on feed conversion ratio” value (crossbred pigs; [11])?
Answer: The value was “improved”.

Question: And the “effect on phosphorus digestibility” value (crossbred pigs; [11])?
Answer: The value was “improved”.

Question: What about the “effect on daily feed intake” value (crossbred pigs; supplemental boron 50 mg/kg vs 0, p>0.20) of the same molecule?
Answer: The value was “not significantly modified”.

Question: What about the “piglet quality as assessed by uniformity, growth, and general thrift” value (sows [5]) of the same molecule?
Answer: Its value is “improved”.

Question: What about the pre-weaning piglet mortality (sows [5]) of the same molecule?
Answer: Its pre-weaning piglet mortality is “reduced”.

Question: And the “piglet weight at 12 days of age” value (sows [6])?
Answer: The value was 8.5 pounds.

Question: What about the pre-weaning mortality (sows [6]) of the same molecule?
Answer: Its pre-weaning mortality is 16%.

Question: And the “effect on litter size at birth” value (sows [7])?
Answer: Its value is “no effects”.

Question: What about the “effect on piglet birth weight” value (sows [7]) of the same molecule?
Answer: Its value is “no effects”.

Question: What about the “likelihood to conceive relative to control sows” value (sows [7]) of the same molecule?
Answer: The value was 1.2 times.

Question: And the “return to estrus, average days quicker than control sows” value (sows [7])?
Answer: Its value is 1.6 days.

Question: What about the piglet mortality (sows [7]; from 1 week prior to farrowing until weaning) of the same molecule?
Answer: The piglet mortality was 15.2%.

Question: What about the “piglet weight at 12 days of age” value (sows [7]; from 1 week prior to farrowing until weaning at 14 days) of the same molecule?
Answer: The value was 9.01 lbs.
